The results in this text go back to patent US20040157858A1, “Piperazine derivatives as tachykinin antagonists” (priority 2001, published 2004).

Structures can show the parent of a compound that is named as a salt.

T1 sequence (P25103 whole entry): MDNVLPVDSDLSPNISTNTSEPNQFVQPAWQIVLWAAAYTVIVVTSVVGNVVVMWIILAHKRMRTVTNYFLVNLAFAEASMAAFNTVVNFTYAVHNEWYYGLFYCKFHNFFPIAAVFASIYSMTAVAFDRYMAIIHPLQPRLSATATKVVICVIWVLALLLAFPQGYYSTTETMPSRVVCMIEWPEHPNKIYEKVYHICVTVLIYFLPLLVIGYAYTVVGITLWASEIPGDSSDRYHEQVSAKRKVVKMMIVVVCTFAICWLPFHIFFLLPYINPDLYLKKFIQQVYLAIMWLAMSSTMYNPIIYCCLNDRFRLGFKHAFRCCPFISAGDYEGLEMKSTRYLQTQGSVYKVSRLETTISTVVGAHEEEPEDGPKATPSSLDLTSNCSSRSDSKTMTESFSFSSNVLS

One data set addresses T1, recombinant human NK1 receptors (Homo sapiens, UniProt P25103).
T1 construct: expressed in transfected cells; host or cells: Chinese Hamster Ovary (CHO) cells, membrane preparation
In words: NK1-receptor binding affinity, displacement of [3H]-substance P. The settings on record: displacement of [3H]-substance P from recombinant human NK1 receptors expressed in CHO cell membranes; average of at least two determinations. How it is done: NK1-receptor binding affinity has been determined in vitro by the compounds' ability to displace [3H]-substance P (SP) from recombinant human NK1 receptors expressed in Chinese Hamster Ovary (CHO) cell membranes.
CHO cell membranes were prepared by using a modification of the method described by Dam T and Quirion R (Peptides, 7:855-864, 1986). Thus ligand binding was performed in 0.4 ml of 50 mM HEPES, pH 7.4, containing 3 mM MnCl2, 0.02% BSA, 0.5 nM [^3H]-Substance P (30÷56 Ci/mmol, Amersham), a final membrane concentration of 25 μg of protein/ml, and the test compounds. The incubation proceeded at room temperature for 40 min. Non-specific binding was determined using excess of Substance P (1 μM) and represents about 6% of the total binding.
The affinity of the compound of the invention for NK1 receptor was determined using the NK1-receptor binding affinity method measuring in vitro by the compounds' ability to displace [3H]-substance P (SP) from recombinant human NK1 receptors expressed in Chinese Hamster Ovary (CHO) cell membranes. The affinity values are expressed as negative logarithm of the inhibition constant (Ki) of displacer ligands (pKi).
The pKi values obtained as the average of at least two determinations with representative compounds of the invention are given in the following table: […]
On the technique in general: Loss of bound radioactivity is the signal in a displacement assay; it reports binding, not function.
The Ki is the dissociation constant of the complex between target and ligand, obtained from inhibition or displacement. Consider `Cc1cc(F)ccc1[C@H]1CNCCN1C(=O)N(C)Cc1ccc(Cl)c(Cl)c1` [Example 8, 2-(S)-(4-fluoro-2-methyl-phenyl)-piperazine-1-carboxylic Acid, (3,4-dichlorobenzyl)-methylamide Trifluoroacetate], for which the Ki was 0.646 nM.
`Cc1cc(F)ccc1[C@H]1CNCCN1C(=O)N(C)Cc1cc(F)cc(F)c1` [Example 6, 2-(S)-(4-Fluoro-2-methyl-phenyl)-piperazine-1-carboxylic Acid, (3,5-difluoro-benzyl)-methylamide Hydrochloride]: the Ki was 1.66 nM.
Same read-out and setting: the figure for `Cc1cc(F)ccc1[C@H]1CNCCN1C(=O)N(C)Cc1cc(Cl)ccc1Cl` [Example 7, 2-(S)-(4-Fluoro-2-methyl-phenyl)-piperazine-1-carboxylic Acid, (2,5-dichloro-benzyl)-methylamide Hydrochloride] is 0.851 nM.
Same read-out and setting: to `Cc1cc(C)cc(CN(C)C(=O)N2CCNC[C@@H]2c2ccc(F)cc2C)c1` [Example 2, 2-(S)-(4Fluoro-2-methyl-phenyl)piperazine-1-carboxylic Acid, (3,5-dimethyl-benzyl)-methylamide Hydrochloride] belongs 0.724 nM.
As for `Cc1cc(F)ccc1[C@H]1CNCCN1C(=O)N(C)Cc1cc(Cl)cc(Cl)c1.Cl` [Example 3, 2-(S)-(4-Fluoro-2-methyl-phenyl)-piperazine-1-carboxylic Acid, (3,5-dichloro-benzyl)-methylamide Hydrochloride], the inhibition constant Ki is 0.372 nM.

System in another data set: not given
Assay: not given
Conditions: not given
As usually defined, the melting point is the temperature, or range, at which the solid turns liquid. With `Cc1cc(F)ccc1[C@H]1CNCCN1C(=O)N(C)Cc1cc(Cl)cc(Cl)c1.Cl` [Example 3, 2-(S)-(4-Fluoro-2-methyl-phenyl)-piperazine-1-carboxylic Acid, (3,5-dichloro-benzyl)-methylamide Hydrochloride], the melting point fell in the range of 110 to 112 °C.
